Data on one compound can be found in patent US20250270564A1, “EXTRACELLULAR VESICLE SECRETION BOOSTER FOR BOOSTING EXTRACELLULAR VESICLE SECRETION, AND USE THEREOF” (THEORIA SCIENCE INC., priority 2021, published 2025).

One test deals with A549. Briefly: Amount of secreted EVs (ExoScreen / NTA method). In kind it is cell-based, human. Particulars: inhibitor at 10 nmol/L or 100 nmol/L, FIG. 11. The procedure:
For preparation of a secreted EV sample for the ExoScreen method, cells were cultured and supernatant was collected as follows. First, cells were seeded in a 96-well plate using a serum-supplemented medium (the medium according to the type of cells) at 5×10^3 cells/medium 0.1 mL/well (Day 0). After incubation for 24 hours (Day 1), 10 fmol of the miRNA was added, and the cells were transfected with the miRNA using a transfection agent (product name Dhermafect1, manufactured by Dhermacon, the same shall apply hereinafter) according to the instructions for use. […]
(§1) For preparation of a secreted EV sample for the NTA method, cells were cultured and supernatant was collected and purified as follows. […] After collecting the supernatant, the number of cells in each well was counted. […]
EV detection was performed using an exosome marker CD9 or C63 according to the ExoScreen method. EV detection was performed using an AlphaLISA reagent (Perkin Elmer) composed of AlphaScreen streptavidin-coated donor beads (6760002), AlphaLISA unconjugated acceptor beads (6062011), and an AlphaLISA universal buffer (AL001F), a 96-well half-area white plate (6005560, Perkin Elmer), and a detection device EnSpire Alpha 2300 Mutilabel plate reader (Perkin Elmer). […]

The subject of a further test is HCT116. The test can be described thus: Amount of secreted EVs (ExoScreen / NTA method). In kind it is cell-based, human. Particulars: inhibitor at 10 nmol/L or 100 nmol/L, FIG. 12. The protocol:
For preparation of a secreted EV sample for the ExoScreen method, cells were cultured and supernatant was collected as follows. First, cells were seeded in a 96-well plate using a serum-supplemented medium (the medium according to the type of cells) at 5×10^3 cells/medium 0.1 mL/well (Day 0). After incubation for 24 hours (Day 1), […], and the cells were transfected with the miRNA using a transfection agent (product name Dhermafect1, manufactured by Dhermacon, the same shall apply hereinafter) according to the instructions for use. […]
as §1
EV detection was performed using an exosome marker CD9 or C63 according to the ExoScreen method. EV detection was performed using an AlphaLISA reagent (Perkin Elmer) composed of AlphaScreen streptavidin-coated donor beads (6760002), AlphaLISA unconjugated acceptor beads (6062011), and an AlphaLISA universal buffer (AL001F), a 96-well half-area white plate (6005560, Perkin Elmer), and a detection device EnSpire Alpha 2300 Mutilabel plate reader (Perkin Elmer). […] Next, luminescence in the wells of the plate was measured using the detection device with the excitation wavelength set to 680 nm and the emission detection wavelength set to 615 nm. […]

In the case of `CC(C)(Sc1cc(C(C)(C)C)c(O)c(C(C)(C)C)c1)Sc1cc(C(C)(C)C)c(O)c(C(C)(C)C)c1` [probucol], the “EV secretion compared with NC” value in the test with A549 and with HCT116 was “particularly effectively boosted EV secretion” in each case.
